Legend:
[1] = test system: mild to moderate asthmatic patients sensitized to HDM; test: Phase 2a proof of concept clinical trial, HDM allergen challenge (FEV1); type: in vivo, human
From the text: Seventeen mild to moderate asthmatics sensitized to HDM were included in a double blind crossover study comprising allergen challenges with HDM. […] These experiments show a significant effect of HPBCD inhalation on the prevention of allergen-induced FEV1 decrease during the late phase.
Clinical trial protocols have been approved by an independent ethical committee (CHU Liege—University of Liege) in accordance with GCPs, Declaration of Helsinki and European regulations (EudraCT). All participants gave written informed consent before any study-specific procedure. For the phase 1 clinical trial, 8 healthy subjects (4 women and 4 men) from 18 to 40 years were recruited and enrolled in the study at the University Hospital of Liege (Belgium). Patients were randomized and received first the placebo (NaCl 0.9%) or HPBCD at 2.5 mM and 8 days after, the opposite treatment. After 1 week, all patients received HPBCD at 15 mM. One month later, all patients received HPBCD at 15 mM during 5 consecutive days. Apyrogenic and sterile HPBCD powder was diluted with NaCl 0.9% before inhalation (8 ml) with an ultrasonic nebulizer (Devilbiss 2000). General symptoms, asthma scores (ACQ), dyspnea, chest Rx, clinical biology, ECG, vital signs, spirometry, NO, sputum (induced by NaCl 4.5%) were analyzed after treatment periods. The second clinical trial (phase 2a-proof of concept) was a double-blinded, cross-over, placebo-controlled study. 17 mild to moderate asthmatic patients were included in the study at two different sites (University Hospital of Liege and University Hospital Erasme) in Belgium. Characterization visits consisted of dyspnea symptoms recording, ECG, chest Rx, clinical biology, spirometry and vital signs analysis. PD20 (provocative dose that causes a 20% fall in FEV1 from the saline alone value) to inhaled allergen was determined. […] The PD20 of the allergen was calculated from a cumulative dose-response curve, as described previously, Cataldo et al., Matrix metalloproteinase-9, but not tissue inhibitor of matrix metalloproteinase-1, increases in the sputum from allergic asthmatic patients after allergen challenge, Chest. 2002; 122(5):1553-9. All […] received a cumulative concentration of Dermatophagoides pteronyssinus with a reactivity index of 6. After 14 days wash-out period, patients were randomly divided into two groups and received either HPBCD 15 mM or Placebo (NaCl 0.9%) by inhalation (ultrasonic nebulizer (Devilbiss 2000)) twice daily. At the end of this treatment period, lung function (FEV1) was analyzed after allergen (HDM) challenge under the supervision of experienced respiratory clinical physiologists. FEV1 was measured after allergen inhalation challenge at 5, 15, 30, 60, 120, 180, 240, 300 and 360 min. After 28 days wash-out period, patients received the opposite treatment for another 14 days and the FEV1 following allergen challenge was evaluated. All clinical parameters were examined after each treatment period. The endpoint of this proof of concept study was changes in FEV1 over 0-360 min post-allergen challenges. FEV1 in early phase (0-60 min) and late phase (180-360 min) were expressed as: area under the FEV1-versus-time curve (AUC), maximum percentage fall and average percentage fall (calculated by dividing the area under the curve of the percentage fall in FEV1 by the duration of the response period). One patient who received placebo had negative maximum FEV1 decrease and negative average percentage fall in FEV1. These negative values were truncated to 0. Patients had access to […] (salbutamol 100 μg) throughout the study as an «as needed» treatment. […]

[2] = test system: naïve CD4+ T cells (Balb/c); test: In-vitro T-cell proliferation assay (BrdU incorporation, IL-2 secretion); type: cell-based, mice; details: HPBCD 5 mM, 48 h incubation
Protocol: The term “T-cell proliferation” means an increase in T-cells over a given period of time. In one embodiment, T-cell proliferation is measured by flow cytometry analysis of lung TH2 cells and total leukocyte counts. An exemplary embodiment of a way to measure T-cell proliferation is given in example 1 below. In one embodiment, naïve CD4+ T cells are exposed to HPBCD at a concentration of 5 mM and an anti-CD3 (3 mcg/ml) for 24 hours or 48 hours with HPBCD (5 mM) or with culture medium alone at 37° C. 5% CO2. During the last 2 hours of the proliferation test, Bromodeoxyuridine is added to the medium and incorporation is quantified by ELISA. IL-2 secretion is measured in the medium after 24 hours and 48 hours of anti-CD3 stimulation through ELISA. HPBCD was used at a concentration of 5 mM. […] Naïve CD4+ T cells were isolated from Balb/c mice spleen and purified with a MACS® negative selection kit. 1.5×10^5 cells were seeded in a 96 well plate and incubated with HPBCD 5 mM (in RPMI 10% FBS 1% pen/strep) or with medium alone for 3 h. Cells were then recovered and plated in an anti-CD3 (3 mcg/ml) coated well for 24 or 48 h with HPBCD (5 mM) or with culture medium alone at 37° C. 5% CO2. During the last 2 h of the proliferation test, BrdU was added to medium and incorporation was quantified by ELISA following manufacturer instructions. […]

Compound: CC(O)COC[C@H]1O[C@@H]2O[C@H]3[C@H](O)[C@@H](O)[C@@H](O[C@H]4[C@H](O)[C@@H](O)[C@@H](O[C@H]5[C@H](O)[C@@H](O)[C@@H](O[C@H]6[C@H](O)[C@@H](O)[C@@H](O[C@H]7[C@H](O)[C@@H](O)[C@@H](O[C@H]8[C@H](O)[C@@H](O)[C@@H](O[C@H]1[C@H](O)[C@H]2O)O[C@@H]8COCC(C)O)O[C@@H]7COCC(C)O)O[C@@H]6COCC(C)O)O[C@@H]5COCC(C)O)O[C@@H]4COCC(C)O)O[C@@H]3COCC(C)O (stereo partly drawn) [HPBCD, 2-hydroxypropyl-beta-cyclodextrin]
- decrease in FEV1 after HDM challenge (AUC 0-360 min) ([1]; HPBCD 15 mM inhalation twice daily vs placebo, FIG. 5B): lower decrease in FEV1
- maximum FEV1 decrease after HDM challenge ([1]; HPBCD 15 mM vs placebo, FIG. 5D): significantly lower
- average percentage FEV1 decrease after HDM challenge ([1]; HPBCD 15 mM vs placebo, FIG. 5E): significantly lower
- hematology, serum biochemistry, urinalysis, vital signs, ECG tests and chest X-ray ([1]; between treatment groups): No significant changes
- FEV1 decrease during the early bronchoconstriction phase ([1]; early phase 0-60 min, HPBCD vs placebo): No significant differences
- prevention of FEV1 decrease during the late phase reaction (AUC) ([1]; late phase 180-360 min, HPBCD 15 mM vs placebo, FIG. 5C): predominant effect
- cytotoxicity (BrdU incorporation) [2]: not associated with cytotoxicity

Source: patent US20210386668A1, “Cyclodextrin for use in the treatment and prevention of late phase bronchoconstriction in allergen-induced asthma” (Universite de Liege, priority 2020, published 2021)
